Source: patent US11096967B2, “Pharmaceutical composition for preventing or treating regulatory T cell-mediated diseases” (SCM LIFESCIENCE CO., LTD., priority 2016, dated 2021)

Assays:
Type in all cases: cell-based, human
ICOSL = ICOSL induction in hcMSC by priming factors (qRT-PCR, RT-PCR); settings: for levels of ICOSL mRNA in hcMSCs: IL-1β 10 ng/mL, TNF-α 10 ng/mL, LPS 2 μg/mL, qRT-PCR
Source text: It has been known that the immunosuppressive activity of MSCs can be influenced by various priming or appropriate stimulations. It was confirmed that ICOSL expression in hcMSCs correlated with Treg induction. Thus, it was expected that ICOSL expression was enhanced to increase Treg and to strengthen the immunosuppressive function of hcMSCs. To confirm this expectation, an experiment was first carried out to confirm pro-inflammatory cytokine that can induce ICOSL expression. First, to find appropriate priming factors, hcMSCs were treated with IL-1β (10 ng/mL), TNF-α (10 ng/mL) and LPS (2 μg/mL) for 24 hours. Then, ICOSL expression was determined after 1 hour and 3 hours though qRT-PCR. Further, in order to confirm whether the expression of IL-1R in hcMSC was changed by […] treatment, the expression of IL-1R in hcMSC was confirmed after treatment with IL-1β for 24 hours. The results are illustrated in FIG. 16.

CD4^+ T cells = assay: Effect of PI3K-Akt inhibitors on rhICOSL- or hcMSC-induced Treg induction; settings: 2 days; LY294002 5 μM, GSK690693 1 μM
Method: Akt inhibitor […] (Calbiochem, San Diego, Calif., USA) was used at a concentration of 1 μM and LY294002 (Cell Signaling Technology, Danvers, Mass., USA) was used at concentration of 5 to 10 μM. […] Total Akt was determined. […] The results are illustrated in FIG. 14.

[1] = test system: PI3K-Akt signaling pathway; assay: Akt phosphorylation in CD4^+ T cells (Western blotting); settings: pre-treatment 30 min; LY294002 5 μM, GSK690693 1 μM
Method: Five independent experiments were carried out. […] After 2 days, hcMSCs were washed three times with cold phosphate-buffered saline (PBS) containing 0.05 mM ethylenediamine tetraacetic acid (EDTA) to detach lymphocytes from hcMSCs. Then, hcMSCs were trypsinized and washed twice with cold PBS-EDTA solution and stained with phycoerythrin (PE)-conjugated ICOSL antibody (BioLegend) to analyze ICOSL expression.
More particularly, CD4^+ T cells were pre-treated with LY294002 (5 μM) and GSK690693 (1 μM) for 30 min. […] Total Akt was determined.

Compound | levels of ICOSL mRNA in hcMSCs (ICOSL) | levels of ICOSL mRNA in hcMSCs (ICOSL; listed as IL-10) | expression of IL-1R mRNA in hcMSC (ICOSL; IL-1β 10 ng/ml, 24 hours) | rhICOSL or hcMSC-induced Tregs (CD4^+ T cells) | rhICOSL-induced Akt phosphorylation [1]
TNF-α | increased | – | – | – | –
IL-1β: pro-inflammatory cytokine used as priming factor for hcMSCs | highest effect | increased | did not change the expression of IL-1R mRNA | – | –
CCn1c(-c2nonc2N)nc2c(C#CC(C)(C)O)ncc(OC[C@H]3CCCNC3)c21 [GSK690693] | – | – | – | decreased | marked decrease in Akt phosphorylation
